Molecular target: P. falciparum apicoplast DNA polymerase (Pf-apPOL) (Plasmodium falciparum, UniProt Q8ILY1)
Test: Fluorescence-based high-throughput DNA polymerase assay (molecular beacon), primary screen and dose-response
Format: biochemical
Method in brief: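 Single-point screening used 10 µM compound with 20 nM polymerase, 20 nM hairpin substrate and 6 µM dNTPs for 90 min at 25 °C. Confirmatory titrations (2.5–80 µM) followed fluorescence at three times, and IC50 was derived from a fit including a cooperativity term n.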

P. falciparum apicoplast DNA polymerase (Pf-apPOL), sequence (Q8ILY1 entry or part of it): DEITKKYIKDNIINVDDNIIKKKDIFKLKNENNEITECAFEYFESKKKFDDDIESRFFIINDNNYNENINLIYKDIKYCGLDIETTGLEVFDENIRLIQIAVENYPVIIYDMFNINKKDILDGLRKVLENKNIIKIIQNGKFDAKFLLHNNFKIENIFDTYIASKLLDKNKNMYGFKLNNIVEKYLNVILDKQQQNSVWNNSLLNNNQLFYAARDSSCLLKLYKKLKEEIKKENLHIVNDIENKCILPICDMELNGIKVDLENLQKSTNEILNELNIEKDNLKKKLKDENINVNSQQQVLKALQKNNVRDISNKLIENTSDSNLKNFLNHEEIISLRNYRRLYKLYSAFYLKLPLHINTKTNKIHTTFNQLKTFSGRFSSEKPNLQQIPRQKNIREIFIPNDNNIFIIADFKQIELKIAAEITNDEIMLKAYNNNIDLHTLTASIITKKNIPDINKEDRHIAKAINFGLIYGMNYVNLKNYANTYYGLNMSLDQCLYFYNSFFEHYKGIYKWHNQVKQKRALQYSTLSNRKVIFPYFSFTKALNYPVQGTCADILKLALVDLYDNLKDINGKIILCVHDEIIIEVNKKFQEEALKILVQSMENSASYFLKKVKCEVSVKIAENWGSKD

Structure (SMILES): O=C(O)C(=O)Nc1nc(-c2ccc3c(c2)OCCO3)cs1 [Molecule 82, OC(=O)C(=O)Nc1scc(n1)c1ccc2c(c1)OCCO2]
- DNA Pol (186 hits, value of the hit list (primary screen); unit not given; 90 min, 10 µM): 43
- % inhibition Apo pol 10' (DRC-1; 10'; concentration 2.5): 23.4738%
- % inhibition Apo pol 10' (DRC-1; 10'; concentration 5): 27.4589%
- % inhibition Apo pol 10' (DRC-1; 10'; concentration 10): 36.2592%
- % inhibition Apo pol 10' (DRC-1; 10'; concentration 20): 39.5068%
- % inhibition Apo pol 10' (DRC-1; 10'; concentration 40): 47.7699%
- % inhibition Apo pol 10' (DRC-1; 10'; concentration 80): 63.5129%
- % inhibition Apol 90' (DRC-1; 90'; concentration 2.5): 8.772%
- % inhibition Apol 90' (DRC-1; 90'; concentration 5): 11.5991%
- % inhibition Apol 90' (DRC-1; 90'; concentration 10): 21.2379%
- % inhibition Apol 90' (DRC-1; 90'; concentration 20): 24.9603%
- % inhibition Apol 90' (DRC-1; 90'; concentration 40): 33.8146%
- % inhibition Apol 90' (DRC-1; 90'; concentration 80): 46.367%
- % inhibition apPOL 180' (DRC-1; 180'; concentration 2.5): 0.4032%
- % inhibition apPOL 180' (DRC-1; 180'; concentration 5): 2.14%
- % inhibition apPOL 180' (DRC-1; 180'; concentration 10): 10.4775%
- % inhibition apPOL 180' (DRC-1; 180'; concentration 20): 13.4628%
- % inhibition apPOL 180' (DRC-1; 180'; concentration 40): 21.1866%
- % inhibition apPOL 180' (DRC-1; 180'; concentration 80): 32.4786%
- % inhibition Apo pol 5' (DRC-2, 5', concentration 2.5): 23%
- % inhibition Apo pol 5' (DRC-2, 5', concentration 5): 17%
- % inhibition Apo pol 5' (DRC-2, 5', concentration 10): 25%
- % inhibition Apo pol 5' (DRC-2, 5', concentration 20): 30%
- % inhibition Apo pol 5' (DRC-2, 5', concentration 40): 34%
- % inhibition Apo pol 5' (DRC-2, 5', concentration 80): 46%
- % inhibition Apol 40' (DRC-2, 40', concentration 2.5): 13%
- % inhibition Apol 40' (DRC-2, 40', concentration 5): 15%
- % inhibition Apol 40' (DRC-2, 40', concentration 10): 24%
- % inhibition Apol 40' (DRC-2, 40', concentration 20): 28%
- % inhibition Apol 40' (DRC-2, 40', concentration 40): 37%
- % inhibition Apol 40' (DRC-2, 40', concentration 80): 46%
- % inhibition ApPOL 90' (DRC-2, 90', concentration 2.5): 8%
- % inhibition ApPOL 90' (DRC-2, 90', concentration 5): 14%
- % inhibition ApPOL 90' (DRC-2, 90', concentration 10): 23%
- % inhibition ApPOL 90' (DRC-2, 90', concentration 20): 26%
- % inhibition ApPOL 90' (DRC-2, 90', concentration 40): 34%
- % inhibition ApPOL 90' (DRC-2, 90', concentration 80): 43%
- % inhibition apPOL 180' (DRC-2, 180', concentration 2.5): 0.181%
- % inhibition apPOL 180' (DRC-2, 180', concentration 5): 9%
- % inhibition apPOL 180' (DRC-2, 180', concentration 10): 15%
- % inhibition apPOL 180' (DRC-2, 180', concentration 20): 18%
- % inhibition apPOL 180' (DRC-2, 180', concentration 40): 25%
- % inhibition apPOL 180' (DRC-2, 180', concentration 80): 34%
- % inhibition Apo pol 5' (DRC-2; 5'; concentration 2.5): 23%
- % inhibition Apo pol 5' (DRC-2; 5'; concentration 10): 25%
- % inhibition Apo pol 5' (DRC-2; 5'; concentration 40): 34%
- % inhibition Apo pol 5' (DRC-2; 5'; concentration 80): 46%
- % inhibition Apol 40' (DRC-2; 40'; concentration 5): 15%
- % inhibition Apol 40' (DRC-2; 40'; concentration 80): 46%
- % inhibition ApPOL 90' (DRC-2; 90'; concentration 10): 23%
- % inhibition ApPOL 90' (DRC-2; 90'; concentration 40): 34%
- % inhibition apPOL 180' (DRC-2; 180'; concentration 10): 15%
- % inhibition apPOL 180' (DRC-2; 180'; concentration 40): 25%
- % inhibition apPOL 180' (DRC-2; 180'; concentration 80): 34%
- DNA Pol (primary screen value, 'DNA Pol' only; 90 min, 10 µM): 43

Structure (SMILES): Cc1cccc(CC(=O)N2CCc3c(nc4cc(-c5ccccc5)[nH]n4c3=O)C2)c1 [Molecule 12, Cc1cccc(c1)CC(=O)N1CCc2c(C1)nc1n(c2=O)[nH]c(c1)c1ccccc1]
- % inhibition Apo pol 10' (DRC-1; 10'; concentration 2.5): 15%
- % inhibition Apo pol 10' (DRC-1; 10'; concentration 5): 48%
- % inhibition Apo pol 10' (DRC-1; 10'; concentration 10): 68%
- % inhibition Apo pol 10' (DRC-1; 10'; concentration 20): 81%
- % inhibition Apo pol 10' (DRC-1; 10'; concentration 40): 86%
- % inhibition Apo pol 10' (DRC-1; 10'; concentration 80): 83%
- % inhibition Apol 90' (DRC-1; 90'; concentration 2.5): 3.59%
- % inhibition Apol 90' (DRC-1; 90'; concentration 5): 28%
- % inhibition Apol 90' (DRC-1; 90'; concentration 10): 50%
- % inhibition Apol 90' (DRC-1; 90'; concentration 20): 69%
- % inhibition Apol 90' (DRC-1; 90'; concentration 40): 81%
- % inhibition Apol 90' (DRC-1; 90'; concentration 80): 85%
- % inhibition apPOL 180' (DRC-1; 180'; concentration 2.5): -4%
- % inhibition apPOL 180' (DRC-1; 180'; concentration 5): 13%
- % inhibition apPOL 180' (DRC-1; 180'; concentration 10): 32%
- % inhibition apPOL 180' (DRC-1; 180'; concentration 20): 55%
- % inhibition apPOL 180' (DRC-1; 180'; concentration 40): 73%
- % inhibition apPOL 180' (DRC-1; 180'; concentration 80): 82%
- % inhibition Apo pol 5' (DRC-2, 5', concentration 10 (unit not given)): 44%
- % inhibition Apo pol 5' (DRC-2, 5', concentration 40 (unit not given)): 48%
- % inhibition Apol 40' (DRC-2, 40', concentration 40 (unit not given)): 66%
- % inhibition ApPOL 90' (DRC-2, 90', concentration 20 (unit not given)): 66%
- % inhibition ApPOL 90' (DRC-2, 90', concentration 40 (unit not given)): 70%
- % inhibition apPOL 180' (DRC-2, 180', concentration 10 (unit not given)): 44%
- % inhibition apPOL 180' (DRC-2, 180', concentration 40 (unit not given)): 70%
- % inhibition apPOL 180' (DRC-2, 180', concentration 80 (unit not given)): 69%
- % inhibition Apo pol 5' (DRC-2; 5'; concentration 2.5): 7%
- % inhibition Apo pol 5' (DRC-2; 5'; concentration 5): 23%
- % inhibition Apo pol 5' (DRC-2; 5'; concentration 10): 44%
- % inhibition Apo pol 5' (DRC-2; 5'; concentration 20): 49%
- % inhibition Apo pol 5' (DRC-2; 5'; concentration 40): 48%
- % inhibition Apo pol 5' (DRC-2; 5'; concentration 80): 43%
- % inhibition Apol 40' (DRC-2; 40'; concentration 2.5): 5.58%
- % inhibition Apol 40' (DRC-2; 40'; concentration 5): 25%
- % inhibition Apol 40' (DRC-2; 40'; concentration 10): 54%
- % inhibition Apol 40' (DRC-2; 40'; concentration 20): 65%
- % inhibition Apol 40' (DRC-2; 40'; concentration 40): 66%
- % inhibition Apol 40' (DRC-2; 40'; concentration 80): 62%
- % inhibition ApPOL 90' (DRC-2; 90'; concentration 2.5): 4.61%
- % inhibition ApPOL 90' (DRC-2; 90'; concentration 5): 22%
- % inhibition ApPOL 90' (DRC-2; 90'; concentration 10): 53%
- % inhibition ApPOL 90' (DRC-2; 90'; concentration 20): 66%
- % inhibition ApPOL 90' (DRC-2; 90'; concentration 40): 70%
- % inhibition ApPOL 90' (DRC-2; 90'; concentration 80): 67%
- % inhibition apPOL 180' (DRC-2; 180'; concentration 2.5): 2.3%
- % inhibition apPOL 180' (DRC-2; 180'; concentration 5): 12%
- % inhibition apPOL 180' (DRC-2; 180'; concentration 10): 44%
- % inhibition apPOL 180' (DRC-2; 180'; concentration 20): 63%
- % inhibition apPOL 180' (DRC-2; 180'; concentration 40): 70%
- % inhibition apPOL 180' (DRC-2; 180'; concentration 80): 69%
- % inhibition Apo pol 10' (first dose-response, 10', concentration 5 (unit not given)): 48%
- % inhibition Apo pol 10' (first dose-response, 10', concentration 20 (unit not given)): 81%
- % inhibition Apol 90' (first dose-response, 90', concentration 20 (unit not given)): 69%
- % inhibition Apol 90' (first dose-response, 90', concentration 40 (unit not given)): 81%
- DNA Pol (primary screen value of the 186 hits; unit not given; 90 min, 10 µM): 49
- DNA Pol (primary screen value, head "DNA Pol", unit not given; 90 min, 10 µM): 49
